Results on two compounds are retold here after US20180133203A1, “METHODS OF TREATING LIVER DISEASE” (Gilead Sciences, Inc., priority 2016, published 2018).

This assay concerns CDHFD/NaNO2 rats. As to the kind of experiment: Quantitative morphometric analysis of liver collagen by Picrosirius Red (PSR) staining in CDHFD/NaNO2 rat model of NASH. Type of assay: in vivo, male Wistar rats. The note with it: week 4 to 14; for PSR area (% area of liver): mean±SEM, vehicle-treated CDHFD/NaNO2 rats 8.5±0.6%, healthy control 1.7±0.3%, Formula (I) 0.2% in diet, Formula (III) 30 mg/kg/day; for reduction of liver collagen (PSR): vs vehicle-treated CDHFD/NaNO2 rats, Formula (I) 0.2% admixture in diet, Formula (III) 30 mg/kg/day in diet. Here is the method: The following study was conducted to evaluate the efficacy of the combination of an ASK1 inhibitor and an FXR agonist in a rodent model of non-alcoholic steatohepatitis (NASH), relative to the efficacy of the individual agents alone in the model. NASH was induced in male Wistar rats by administration of a choline-deficient high fat diet (CDHFD) combined with the chronic administration of sodium nitrite (CDHFD/NaNO2). The model capitalizes on the “two hit theory” of NASH by inducing both metabolic dysfunction (CDHFD) and oxidative stress (NaNO2) in the liver to result in hepatic fibrosis that is similar in character and severity to that seen in patients with advanced NASH. Rats were fed CDHFD for a total of 14 weeks and were administered NaNO2 from week 4 to 14. The compound of Formula (III) (given as admixture in diet, adjusted to deliver 30 mg/kg/day), compound of Formula (I) (administered as a 0.2% admixture in diet), or vehicle was administered from week 4 to 14. The following endpoints were assessed at the completion of the 14 week study: i) liver fibrosis measured by liver hydroxyproline (OHP) content and by quantitative morphometric analysis of collagen content by Picosirius red (PSR) staining; ii) myofibroblast activation in liver sections as measured by quantitative IHC of the myofibroblast marker desmin; and, iii) Col1a1 and Timp1 in liver tissue measured by RT-PCR. All CDHFD/NaNO2 animals were fed a choline-deficient high-fat diet (CDHFD; Research Diets, Inc) for 14 weeks and were also administered intraperitoneal injections of NaNO2 (3 injections per week; Sigma Aldrich #31443) at a dose of 25 mg/kg (from week 4 to 10) and at a dose of 12.5 mg/kg (from week 10 to 14). Formula (III) (given as admixture in the CDHFD diet, adjusted to deliver 30 mg/kg/day, n=10 animals per group) and Formula (I) (given as a 0.2% admixture in the CDHFD diet, n=10 per group) were administered drug from week 4 to 14. Vehicle control animals were administered the same CDHFD diet with no drug added (Vehicle; n=10 animals per group) from week 4 to 14. […] On the final day of study, rats received a single oral gavage of either Formula (I) or Formula (III) at a dose of 30 mg/kg, four hours before animals were euthanized and tissues were collected for analyses. All endpoints were assessed at the completion of the 14 week study protocol. Whole slide images of Picrosirius Red (PSR) and Desmin stained slides were captured using a Leica AT2 scanner at 40× magnification. […] Quantitative image analysis was performed on the whole slide-scan images using Definiens Tissue Studio Architect XD (Definiens Inc.) to determine the extent and intensity of PSR and Desmin. […] The total PSR-stained area and Desmin IHC staining were measured and expressed as a percentage of total liver area stained.

Turning to `O=C(Nc1cccc(-c2nncn2C2CC2)c1)c1cc(-n2cnc(C3CC3)c2)ccn1` [Formula (I)], the “PSR area (% area of liver)” value is 6.2±1.1% and the “reduction of liver collagen (PSR)” value is 27%.
For `O=C(O)c1ccnc(N2CC(O)(c3ccc(OCc4c(-c5c(Cl)cccc5Cl)noc4C4CC4)cc3Cl)C2)c1` [Formula (III)], the “PSR area (% area of liver)” value was 6.6±0.9% and the “reduction of liver collagen (PSR)” value was 22%.
